Legend:
[1] = system: wound chambers at shoulder and hip of Sprague Dawley rats; assay: Hunt-Schilling wound chamber assay; format: in vivo, rat
Experimental: The effect of rhRLX on normal and ischemic wound healing in two rat models of dermal wound healing was evaluated. RhRLX in vehicle, or vehicle alone, was delivered by subcutaneous infusion to Sprague-Dawley rats using an implanted ALZET7 osmotic pump (Alza Corp., Mountain View, Calif.).
In the first model, Hunt-Schilling wound chambers were implanted subcutaneously at either the shoulder or the hip region. The fluid and cells contained within each wound chamber were collected on day 18 for analysis of VEGF protein and mRNA. VEGF protein was detected and measured using ELISA. VEGF-encoding mRNA was detected using Northern blotting and RT-PCR. The granulation tissue within the wound chambers was collected for histological and immunohistochemical evaluation.
Stainless steel mesh cylinders (0.9 cm×3.4 cm) fitted with silicone rubber plugs at both ends were autoclaved prior to implantation. Chambers were implanted into two separate subcutaneous pockets (“Site 1” on the shoulder and “Site 2” on the hip) on the backs of Sprague Dawley rats. At the same time, osmotic pumps were implanted in a subcutaneous pocket at site distal to that of the chambers. At 18 days, chambers were carefully dissected free from the interstitium, and fluid aspirated using an 18-gauge needle through the silicone plugs at the end of the cylinder, and immediately placed on ice. Cells suspended within the fluid were pelleted by centrifugation, and cells and fluid were separated. Total RNA was harvested using RNAzol (Tel-Test, Inc., Friendswood, Tex.), according to vendor instructions. Fluid was immediately frozen, and assayed at a later date for cyokine content.
Primers were purchased from BioSource International (Camarillo, Calif.) and visualized using agarose gel electrophoresis.
Sense and anti-sense primers for use with the real time RT-PCR, ABI Prism 7700 Sequence Detection System were designed using the PrimerExpress version 1.0 software (PE Applied Biosystems, Inc.). Rat and human specific primer/probe sets included those for GAPDH, bFGF, the VEGF 164 aa or 120 aa rat isoforms, and their respective human homologues (VEGF 165 and VEGF 121). ABI PRISM specific primer/probes were purchased from BioSource International Inc. or PE Applied Biosystems.
RT-PCR was performed on 150 ng for the analysis of VEGF and bFGF mRNA expression. Ten nanograms of total RNA was used for GAPDH niRNA expression. PCR products using the ABI Prism 7700 Sequence Detection system (all reactions in a total volume of […]) were generated using primer/probe annealing temperatures of 58° C. and 35 cycles of PCR. Data were analyzed using Sequence Detector v1.6.3 software (Applied Biosystems/PE).
Relaxin was administered systemically to rats using osmotic pumps. In order to assess relaxin's ability to modulate expression of angiogenic cytokines at wound sites, Hunt-Schilling wound chambers were used for fluid and inflammatory cell collection. Wound chambers were implanted subcutaneously at two sites, the shoulder and the hip, distal to the site of pump implantation. Fluid and cells were collected at a point (18 days) during the healing time course when endogenous angiogenic activity and the cellular source, macrophages, were known to be present. Total RNA was harvested from wound cells and analyzed by RT-PCR for VEGF transcripts. When analyzed on an agarose gel, there were two distinct bands comprising the amplified products, corresponding to the 121aa and 164aa, isoforms of VEGF.
To assess the effect of rhRlx treatment on granulation tissue formation in normal and ischemic wounds, Hunt-Schilling wound chambers were implanted subcutaneously in either the shoulder or the more hypoxic hip region of female Sprague Dawley rats (Charles River Laboratories, Mass.). The wound chambers, fine stainless steel mesh cylinders sealed with medical grade silicone, provide a defined dead space for granulation tissue formation. […]

[2] = system: Alveolar macrophages or spleen cells; assay: VEGF expression by RT-PCR in non-wound macrophages and immune cells; format: in vivo, rat; settings: following relaxin treatment
Text: Resident macrophages and immune cells from other non-wound sources were also harvested from vehicle- and relaxin-treated rats, and assayed for VEGF expression by RT-PCR.

human subjects = assay: Clinical trial: blood pressure and creatinine clearance; format: in vivo
Experimental: A clinical trial was conducted with human subjects, age 18 to 70 years. Subjects were treated with either 10 μg relaxin/kg body weight/day (minimum of 36 subjects), 25 μg relaxin/kg body weight/day (minimum of 72 subjects), or placebo (minimum of 72 subjects) for 24 weeks. Administration was by continuous subcutaneous infusion, using a pump. The relaxin was recombinant human relaxin (rhRlx). At various time points, diastolic blood pressure, systolic blood pressure, and creatinine clearance (as a measure of renal function) were measured. Creatinine clearance was calculated using the following formulas:
Creatinine clearance=((140−age)×weight (kg)/72×serum creatinine (mg/dL))×0.85
Creatinine clearance=(140−age)×weight (kg)/72×serum creatinine (mg/dL)
The change in each measured parameter was calculated (value at week x-week 0 value). […] The threshold for obtaining this effect was greater than 10 μg rhRLXN/kg/day. […] This latter result indicates an increase in blood flow.

[3] = system: small mesenteric arteries; assay: Myogenic reactivity of small mesenteric arteries; format: in vivo, rat; settings: female rats chronically administered rhRLX (FIG. 15)
[4] = wound chamber cells, both shoulder and hip region, day 18
[5] = wound chambers in the hip region

rhRLX: recombinant human relaxin, identical in amino acid sequence to the product of the human H2 gene; A chain of 24, B chain of 29 amino acids
expression of VEGF 164 mRNA ([1]; anteriorly placed (shoulder) wound chamber, real-time RT-PCR): upregulated
bFGF transcripts in wound cells ([1]; both shoulder and hip chambers): significant upregulation
VEGF 120 mRNA ([1]; both sites, real-time RT-PCR): trends toward increases
expression of VEGF 164 mRNA ([1]; chamber placed on the hip, real-time RT-PCR): trend toward an increase
bFGF, and VEGF expression in wounds cells ([1]; hip region (Example 7)): increase
new blood vessel formation ([1]; hip region (Example 7)): increase
Expression of both VEGF isoforms, RT-PCR on agarose gel ([1]; wound cells, 18 days): appeared to be enhanced
VEGF mRNA increase compared to vehicle-treated rats [1, 4]: 31%
bFGF mRNA increase compared to vehicle-treated rats [1, 4]: 59%
weight of granulation tissue ([1]; wound chambers at the hip region, day 18 (Example 7)): significant increase
amount of extracellular matrix deposition [1, 5]: increased
amount of granulation tissue [1, 5]: 255 mg
number of capillaries [1, 5]: increased
tissue weight ([1]; wound chambers in the shoulder region): 283 mg
VEGF expression [2]: did not show an upregulation
renal function, as measured by creatinine clearance (human subjects; 10 μg rhRLXN/kg/day (FIG. 12)): improvement
renal function, as measured by creatinine clearance (human subjects; 25 μg rhRLXN/kg/day (FIG. 13)): improvement
diastolic pressure (human subjects; 25 μg/kg/day s.c. infusion, about week 2 through week 24 (FIG. 10)): reduced
systolic pressure (human subjects; 25 μg/kg/day s.c. infusion, about week 2 through week 24 (FIG. 11)): reduced
threshold for reducing diastolic and systolic pressure (human subjects; human, in vivo): greater than 10 μg rhRLXN/kg/day
myogenic reactivity [3]: reduced myogenic reactivity

Source: patent US6723702B2, “Use of relaxin treat diseases related to vasoconstriction” (RAS Medical, Inc., priority 2000, dated 2004)
